# Patent publication US20200216432A1, “SULFONAMIDE DERIVATIVES AS STAT3 INHIBITORS FOR THE TREATMENT OF PROLIFERATIVE DISEASES” (King's College London, priority 2017, published 2020)
# Entries after “also recorded” stand apart in the source; their conditions may differ.
# Experiments:
# [1] = system: STAT3 and STAT3-dependent genes; assay: RT-PCR expression of STAT3 and STAT3-dependent genes in LPS-stimulated MDA-MB-231 cells; format: cell-based, human; conditions: 25 μM, 8 hours, MDA-MB-231 stimulated with 500 μg/mL LPS
# Description: Effect of Compounds of the Invention on Expression of STAT3 and STAT3-Dependent Genes.
# To probe the STAT3-specific cytotoxicity of the mature ligands, the mRNA expression profile of STAT3 and some STAT3 target genes (i.e., bcl-2, cyclin D1, and fascin) were compared to the reference gene GAPDH using a RT-PCR assay. Initially, the MDA-MB-231 cells were stimulated with 500 μg/mL LPS for 24 hours at 37° C. Following this, the compounds were added at 25 μM to the cells and incubated for another 8 hours at 37° C. Finally, PCR was used to determine changes in the gene expression profiles between stimulated-untreated and stimulated-treated cells.
# [2] = system: A4 (STAT3-null) cancer cell line; assay: MTT cell viability assay, A4; format: cell-based
# Text: (§1) MTT Cell viability assay with both MDA-MB-231 breast (STAT3-dependent) and A4 (STAT3-null) cancer cell lines.
# (§2) After observing significant STAT3 dimerisation inhibitory activity in the preliminary FP assay, the target ligand and related fragments were progressed to an MTT cytotoxicity assay to evaluate in a STAT3-dependent tumour cell line (MDA MB 231, breast cancer) and a STAT3 null A4 cell line. It was anticipated that the compounds would show selective toxicity towards the STAT3-dependent MDA MB 231 cell line and would have lost activity in the STAT3 null A4 cell line if the mechanism of action was STAT3-mediated.
# (§3) For each cell line, a total of 10,000 cells were seeded for 24 hours before addition of the inhibitors. The cells were grown in normal cell culture conditions at 37° C. under a 5% CO2 humidified atmosphere using an appropriate medium. The cell count was adjusted to 10^5 cells/ml, and 5,000-20,000 cells were added per well depending on the cell line. The cells were then incubated for 24 hours, and 1 μl aliquots of the inhibitors were added to the wells in triplicate. […] Absorbance was quantified by spectrophotometry at A=570 nm (Envision™ Plate Reader, PerkinElmer™, USA). IC50 values were calculated by a dose-response analysis using the Prism GraphPad Prism® software package.
# [3] = target: unphosphorylated STAT3 monomer (uSTAT3) SH2 domain (Homo sapiens, UniProt P40763); assay: Fluorescence polarisation assay for the inhibition of STAT3 dimerisation; format: binding; conditions: 350 nM uSTAT3, 10 nM FAM-pYLPQTV, 100 μM ligand; average of triplicate
# Chain of unphosphorylated STAT3 monomer (uSTAT3) SH2 domain (P40763 whole entry, the tested form may be a part): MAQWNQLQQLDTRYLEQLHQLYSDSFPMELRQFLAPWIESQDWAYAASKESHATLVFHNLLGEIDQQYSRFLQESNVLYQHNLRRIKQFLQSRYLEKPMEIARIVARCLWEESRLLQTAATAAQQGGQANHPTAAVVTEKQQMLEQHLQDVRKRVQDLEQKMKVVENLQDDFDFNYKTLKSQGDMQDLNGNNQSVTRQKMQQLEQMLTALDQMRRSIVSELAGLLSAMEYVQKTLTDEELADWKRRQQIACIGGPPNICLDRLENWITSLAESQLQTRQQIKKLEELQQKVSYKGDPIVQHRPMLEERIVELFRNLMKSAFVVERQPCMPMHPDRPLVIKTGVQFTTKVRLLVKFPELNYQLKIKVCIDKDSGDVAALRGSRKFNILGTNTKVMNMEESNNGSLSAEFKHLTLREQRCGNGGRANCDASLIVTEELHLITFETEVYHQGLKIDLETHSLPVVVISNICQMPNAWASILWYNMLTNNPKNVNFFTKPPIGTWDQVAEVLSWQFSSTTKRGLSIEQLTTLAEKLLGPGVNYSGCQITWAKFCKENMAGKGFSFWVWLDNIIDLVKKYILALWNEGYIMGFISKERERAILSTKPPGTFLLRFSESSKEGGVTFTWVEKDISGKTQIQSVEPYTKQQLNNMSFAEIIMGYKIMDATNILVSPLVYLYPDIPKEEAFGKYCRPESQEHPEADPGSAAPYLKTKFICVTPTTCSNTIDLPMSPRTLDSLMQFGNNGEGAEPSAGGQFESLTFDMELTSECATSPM
# Text: Fluorescence Polarisation Assay for the Inhibition of STAT3 Dimerisation
# The compounds were subjected to an in vitro fluorescent polarisation (FP)-based primary PPI binding screen to assess their ability to inhibit STAT3 dimerisation by interacting with the SH2 domain. In this FP assay, the unphosphorylated STAT3 monomer (uSTAT3) and a surrogate peptide FAM-pYLPQTV were used to form a ‘pseudo-dimer’. The assay is based on the concept that the compounds were expected to displace the surrogate peptide from the uSTAT3 resulting in a fluorescent read out.
# Specifically, for the FP assay, a black (CORNING™) 96 well plate was thoroughly washed with distilled water and allowed to dry. A 100 nM FAM-pYLPQTV working solution was prepared from 10 μM FAM-pYLPQTV stock solution (in DMSO) using PBS pH 7.4 Buffer. 10 μl FAM-pYLPQTV was added to 350 nM uSTAT3 protein, the final concentration of protein in each well, in 90 μl PBS buffer pH 7.4. The MP value of the surrogate dimer complex was measured using a fluorescent plate reader (Envision™, Perkin Elmer™, USA), which provided the base MP value. The inhibitor solution was then added to the well and the assay plate was placed on a shaker for 5 minutes. The MP value for each well was then measured again. A shift in fluorescent values was observed due to displacement of the fluorescently-labelled surrogate peptide by the inhibitors, and the average inhibition for each inhibitor could be calculated as described below:
# Base MP value (X) for each well=MP value of Protein and Probe (350 nm STAT3+10 nM FAM-pYLPQTV)−MP value of free FAM-pYLPQTV
# Inhibitor MP value (Y) for each well=MP value of Protein+Probe+Inhibitor (350 nm uSTAT3+10 nM FAM-pYLPQTV+2 μL Inhibitor)−MP value of free FAM-pYLPQTV with 2 μL DMSO
# % inhibition by any ligand/peptide=(X−Y)/X*100
# For comparison purpose, the % inhibition produced by 100 μM pYLKTKF was considered to be 100%, and the inhibition produced by different ligands was reported as relative to 100 μM pYLKTKF.
# % Inhibition produced by 100 μM pYLKTKF=A
# % Inhibition produced by 100 μM Ligand=B
# Relative inhibition (%)=B/A*100
# The experiment was carried out in triplicate, and average values were taken as the measure of PPI inhibition.
# [4] = system: MDA-MB-231 breast (STAT3-dependent) cancer cell line; assay: MTT cell viability assay, MDA-MB-231; format: cell-based, human; conditions: for Selectivity ratio: STAT3-null A4 versus STAT3-dependent MDA-MB-231
# Text: as §1, §2, §3
# [5] = General toxicity and weight of treated xenograft mice; format: in vivo
# Text: (§4) MDA-MB231 cells were mixed with matrigel (Geltrex, Gibco) before implantation into mice. For tumour generation, 5 million cells in a 50% matrigel mixture were inoculated subcutaneously on both flanks of 8 weeks old SCID Hairless Outbred (SHO) mice purchased from Charles River (Germany). […] The injections were repeated on day 3 and day 5. The sizes of the tumours were regularly measured using a caliper every 2 days. The tumour size of the treated mice was compared with that of the control group (7 untreated mice).
# The days of dosing are indicated by vertical dashed lines.
# MDA MB 231 tumours = assay: Human tumour xenograft study; format: in vivo, SCID Hairless Outbred (SHO) mice
# Description: In Vivo Evaluation of Compound 6 in a Human Tumour Xenograft Study
# Therefore, it was decided to carry out a preliminary in vivo efficacy study in mice to evaluate the ability of the molecule to reduce the tumour volume in MDA MB 231 tumour bearing mice. The in vivo tumour xenograft study was carried out in SCID Hairless Outbred (SHO) mice, using an intravenous (IV) dosing regimen.
# as §4
# STAT3 dependent cells = STAT3 dependent cells as compared to STAT3-null cells; cited from earlier work
# STAT3 [6] = conditions: following IL-6 stimulation; cited from earlier work
# STAT3 [7] = assay: STAT3 dimerization inhibition (unpublished results); conditions: applicants' unpublished results
# Text: herein designated RH-06, was identified as being a novel small molecule inhibitor.
# [8] = MTT, 48 hours exposure (table title)
# [9] = 0.5 mg/Kg IV on days 1, 3 and 5
# [10] = Homo sapiens, MDA-MB-231, 48 h, MTT, 48 hours exposure (table title)
SMILES,IC50 ([2]; exposure (table title)) [µM],inhibition at 100 µM [3] [%],"IC50 [4, 10] [µM]",Bcl-2 mRNA expression (RT-PCR) [1],STAT3 mRNA expression (RT-PCR) [1],cyclin D1 mRNA expression (RT-PCR) [1],fascin mRNA expression (RT-PCR) [1],house-keeping gene GAPDH mRNA expression (RT-PCR) [1],STAT1 mRNA expression (RT-PCR) [1],Selectivity ratio [4],further results
"COC(=O)c1ccc(N(C)S(=O)(=O)c2cc(C(=O)NCc3ccc(CN4CCCCC4)cc3)sc2-c2ccnc(N3CCNCC3)c2)cc1 [Compound 6, methyl 4-((N-methyl-2-(2-(piperazin-1-yl)pyridin-4-yl)-5-((4-(piperidin-1-ylmethyl)benzyl)carbamoyl)thiophene)-3-sulfonamido)benzoate]",73.2,> 50,,very weak expression,Almost no expression,Almost no expression,Almost no expression,without showing any effect,without showing any effect,,"IC50 (MDA-MB-231) [4, 8]: sub-micromolar; organ changes after sacrifice [5, 9]: no organ changes were observed; signs of toxicity [5, 9]: did not show any signs of toxicity; weight of the treated mice [5, 9]: initially lost some weight post-treatment, but regained the weight after 14 days; survival of treated mice ([5]; SCID Hairless Outbred (SHO), mouse, in vivo): ≥ 21 days; tumour volume compared to the control group (MDA MB 231 tumours; 0.5 mg/Kg IV (tail vein) on days 1, 3 and 5): significant reduction; also recorded: remained low and near the baseline; tumour volume after dosing was stopped (MDA MB 231 tumours; after dosing stopped on day 5, 0.5 mg/Kg IV): no significant increase in tumour volume"
"COC(=O)c1ccc(N(C)S(=O)(=O)c2cc(C(=O)Nc3ccc(OCCN4CCOCC4)cc3)sc2-c2ccc(N3CCCCC3)cc2)cc1 [Compound 10, methyl 4-((N-methyl-5-((4-(2-morpholinoethoxy)phenyl)carbamoyl)-2-(4-(piperidin-1-yl)phenyl)thiophene)-3-sulfonamido)benzoate]",67.5,> 50,,very strong down-regulation,significantly downregulated,marked,marked,did not show any effect,did not show any effect,,
"COC(=O)c1ccc(N(C)S(=O)(=O)c2cc(C(=O)Nc3ccc(N4CCN(C(=O)c5cc6ccccc6o5)CC4)cc3)sc2Br)cc1 [Compound 39, methyl 4-((5-((4-(4-(benzofuran-2-carbonyl)piperazin-1-yl)phenyl)carbamoyl)-2-bromo-N-methylthiophene)-3-sulfonamido)benzoate]",,,,,,,,,,,"IC50 [4, 8]: 4.8 µM; IC50 ([2]; 48 hours exposure (table title)): 43.2 µM; % Inhibition [3]: 36.44%"
Cc1ccc(-c2sc(C(=O)NCc3cccs3)cc2S(=O)(=O)N2CCCC2)cc1 [RH-06],,24.2,,,,,,,,,cytostatic effect (STAT3 dependent cells): selectively cytostatic; phosphorylation of STAT3 (STAT3 [6]): selectively inhibited phosphorylation of STAT3; STAT3 dimerization (STAT3 [7]): inhibits STAT3 dimerization
"C[C@@H]1CC(=O)c2c(ccc3c2C(=O)c2cccc(O)c2C3=O)C1 [STA-21, reference compound]",65.5,32.3,18.7,,,,,,,3.5,

# The next lines start with results.
IC50 ([2]; exposure (table title)) [µM],inhibition at 100 µM [3] [%],"IC50 [4, 10] [µM]",SMILES,Bcl-2 mRNA expression (RT-PCR) [1],STAT3 mRNA expression (RT-PCR) [1],cyclin D1 mRNA expression (RT-PCR) [1],fascin mRNA expression (RT-PCR) [1],house-keeping gene GAPDH mRNA expression (RT-PCR) [1],STAT1 mRNA expression (RT-PCR) [1],Selectivity ratio [4],further results
65.1,> 50,,"COC(=O)c1ccc(N(C)S(=O)(=O)c2cc(C(=O)NCc3ccc(CN4CCCCC4)cc3)sc2-c2ccc(N3CCN(C)CC3)nc2)cc1 [Compound 3, methyl 4-((N-methyl-2-(6-(4-methylpiperazin-1-yl)pyridin-3-yl)-5-((4-(piperidin-1-ylmethyl)benzyl)carbamoyl)thiophene)-3-sulfonamido)benzoate]",down-regulated,notable downregulation,down-regulated,down-regulated,without showing any effect,,,
77.4,> 50,,"COC(=O)c1ccc(N(C)S(=O)(=O)c2cc(C(=O)NCc3ccc(CN4CCCCC4)cc3)sc2-c2ccc(C(=O)N3CCOCC3)cc2)cc1 [Compound 4, methyl 4-((N-methyl-2-(4-(morpholine-4-carbonyl)phenyl)-5-((4-(piperidin-1-ylmethyl)benzyl)carbamoyl)thiophene)-3-sulfonamido)benzoate]",more pronounced,notable downregulation,relatively low compared to 3,relatively low compared to 3,without showing any effect,did not downregulate,,
55.6,30.2,5.64,"COC(=O)c1ccc(N(C)S(=O)(=O)c2cc(C(=O)NCc3ccc(CN4CCCC4)cc3)sc2Br)cc1 [Compound 37, methyl 4-((2-bromo-N-methyl-5-((4-(pyrrolidin-1-ylmethyl)benzyl)carbamoyl)thiophene)-3-sulfonamido)benzoate]",,,,,,,9.85,
54.1,29.2,11.6,"COC(=O)c1ccc(N(C)S(=O)(=O)c2cc(C(=O)Nc3cccc(-c4csc(C)n4)c3)sc2Br)cc1 [Compound 38, methyl 4-((2-bromo-N-methyl-5-((3-(2-methylthiazol-4-yl)phenyl)carbamoyl)thiophene)-3-sulfonamido)benzoate]",,,,,,,4.67,
